Data published in patent US10414759B2, “Phenylthiazoles and uses thereof” (Purdue Research Foundation, priority 2017, dated 2019).
Converted amounts (≈) assume the structure as drawn. “Also recorded” adds a separate entry of the source. Where two headings read alike, the source gives them in different places. Each block holds one molecule with its values, some of them ahead of it.

What was measured:
[1] = tested on: Caco-2 cells; assay: Caco-2 bidirectional permeability assay; settings: for Mean A→B Papp: Caco-2, apical to basolateral
[2] = PBS solubility screen (turbidometric); type: physicochemical
Protocol: The solutions were diluted 100-fold into PBS in a 96-well plate and mixed. The absorbance of the PBS-containing plate was measured prior to addition of the test agents to determine the background absorbance. After 2 h, the presence of precipitate was detected by turbidity (absorbance at 540 nm). […] The solubility limit is reported as the highest experimental concentration with no evidence of turbidity.

[3] = tested on: MRSA (2658 RCMB); assay: MIC against MRSA (2658 RCMB), broth dilution; type: cell-based, Staphylococcus aureus; settings: for MIC: Staphylococcus aureus
Protocol: Bacteria were cultured in cation-adjusted Mueller Hinton broth in a 96-well plate. Compounds, using triplicate samples, were added to the plate and serially diluted. […] Plates were visually inspected and the MIC was categorized as the concentration at which no visible growth of bacteria was observed. The average of triplicate MIC determinations is reported.
(§1) A bacterial solution equivalent to 0.5 McFarland standard was prepared and diluted in cation-adjusted Mueller-Hinton broth (CAMHB) to achieve a bacterial concentration of about 5×10^5 CFU/mL and seeded in 96-well plates. Enterococcus faecium was diluted in brain heart infusion broth. Enterococcus faecalis, Streptococcus pneumonia and Listeria monocytogenes were diluted in tryptone soya broth (TSB).

[4] = Metabolic stability in human liver microsomes; type: in vitro ADME; settings: pH 7.4, human liver microsomes
Protocol: The tested compounds were incubated in duplicate with human liver microsomes at 37° C. The reaction contained microsomal protein in 100 mM potassium phosphate, 2 mM NADPH, 3 mM MgCl2, pH 7.4. A control was run for each test agent omitting NADPH to detect NADPH-free degradation. At 0, 10, 20, 40, and 60 minutes, an aliquot was removed from each experimental and control reaction and mixed with an equal volume of ice-cold Stop Solution (methanol containing haloperidol, diclofenac, or other internal standard). Stopped reactions are incubated at least ten minutes at −20° C., and an additional volume of water was added. The samples were centrifuged to remove precipitated protein, and the supernatants were analyzed by LC/MS/MS to quantitate the remaining parent. Data are converted to % remaining by dividing by the time zero concentration value. Data are fit to a first-order decay model to determine half-life. Intrinsic clearance is calculated from the half-life and the protein concentrations: CLint=ln(2)/(T1/2 [microsomal protein]).

[5] = tested on: MRSA NRS385; assay: MIC/MBC S. aureus strains (Table 8); type: cell-based; settings: Staphylococcus aureus
Protocol: as §1

[6] = tested on: S. aureus ATCC 6538; assay: MIC/MBC S. aureus strains (Table 8); type: cell-based; settings: Staphylococcus aureus, ATCC6538
Protocol: as §1

[7] = tested on: MRSA NRS384 (USA300); assay: MIC/MBC S. aureus strains (Table 8); type: cell-based; settings: Staphylococcus aureus
Protocol: as §1

[8] = tested on: MRSA (USA300); assay: Time-kill assay; type: cell-based, Staphylococcus aureus; settings: 3.0×MIC; for bactericidal / bacteriostatic behaviour in time-kill assay, in words: MRSA; for time to completely eradicate the MRSA inoculum: t-butyl series
Protocol: Aliquots (100 μL) were taken from each sample after 2, 4, 6, 8, 10, 12, and 24 hours, serially diluted in phosphate-buffered saline, and transferred to Trypticase soy agar (TSA) (Becton, Dickinson and Company, Sparks, Md., USA) plates. Plates were incubated at 37° C. for at least 16 hours before counting viable CFU/mL to determine the time required to reduce the bacterial cell count by 3-log10.

[9] = tested on: Methicillin-resistant Staphylococcus epidermidis NRS101; assay: MIC/MBC Gram-positive pathogens (Table 9); type: cell-based
Protocol: as §1

[10] = tested on: Enterococcus faecalis ATCC 51299 (VRE); assay: MIC/MBC Gram-positive pathogens (Table 9); type: cell-based; settings: Table 9, Enterococcus faecalis ATCC 51299 (VRE)
Protocol: as §1

[11] = tested on: Enterococcus faecium ATCC 700221 (VRE); assay: MIC/MBC Gram-positive pathogens (Table 9); type: cell-based; settings: Table 9; Enterococcus faecium ATCC 700221 (VRE); read-out: MIC
Protocol: (§2) The minimum inhibitory concentration (MIC) of tested compounds and control antibiotics were determined using the broth microdilution method in accordance with the recommendations contained in the Clinical and Laboratory Standards Institute guidelines, against methicillin-sensitive (ATCC 6538 and NRS107), methicillin-resistant (MRSA), and vancomycin-resistant (VRSA) Staphylococcus aureus, Staphylococcus epidermidis, Enterococcus faecalis, E. faecium, Listeria monocytogenes, and Streptococcus pneumoniae clinical isolates. A bacterial solution equivalent to 0.5 McFarland standard was prepared and diluted in cation-adjusted Mueller-Hinton broth (CAMHB) to achieve a bacterial concentration of about 5×10^5 CFU/mL and seeded in 96-well plates. Enterococcus faecium was diluted in brain heart infusion broth. Enterococcus faecalis, Streptococcus pneumonia and Listeria monocytogenes were diluted in tryptone soya broth (TSB). Compounds and control drugs were added in the first row of 96-well plates and serially diluted (to achieve a concentration gradient ranging from 128 to 1 μg/mL). Plates were then incubated aerobically at 37° C. for at least 18 hours. The minimum bactericidal concentration (MBC) of the active compounds was tested by plating 5 μL from wells with no growth onto Tryptic soy agar (TSA) plates.

[12] = tested on: MRSA NRS386; assay: MIC/MBC S. aureus strains (Table 8); type: cell-based; settings: Staphylococcus aureus
Protocol: as §1

[13] = tested on: MRSA NRS123 (USA400); assay: MIC/MBC S. aureus strains (Table 8); type: cell-based; settings: Staphylococcus aureus
Protocol: as §1

[14] = tested on: MRSA NRS119; assay: MIC/MBC S. aureus strains (Table 8); type: cell-based; settings: Staphylococcus aureus
Protocol: as §1

[15] = tested on: Cephalosporin-resistant Streptococcus pneumoniae ATCC 51916; assay: MIC/MBC Gram-positive pathogens (Table 9); type: cell-based; settings: ATCC51916
Protocol: as §1

[16] = tested on: Listeria monocytogenes ATCC 19111; assay: MIC/MBC Gram-positive pathogens (Table 9); type: cell-based
Protocol: as §1

[17] = tested on: Methicillin-resistant Streptococcus pneumoniae ATCC 700677; assay: MIC/MBC Gram-positive pathogens (Table 9); type: cell-based; settings: ATCC700677
Protocol: as §1

[18] = tested on: VRS10 (VRSA); assay: MIC/MBC S. aureus strains (Table 8); type: cell-based; settings: Staphylococcus aureus, Table 8, VRS10 (VRSA)
Protocol: as §2

[19] = tested on: VRS12 (VRSA); assay: MIC/MBC S. aureus strains (Table 8); type: cell-based; settings: Staphylococcus aureus, Table 8, VRS12 (VRSA)
Protocol: as §2

[20] = tested on: S. aureus NRS107; assay: MIC/MBC S. aureus strains (Table 8); type: cell-based, Staphylococcus aureus
Protocol: as §1

[21] = aqueous buffer, kinetic from dmso stock
[22] = Table 1, MRSA (2658 RCMB), read-out: MIC ± SD
[23] = NADPH omitted, read-out: NADPH-free Clint
[24] = NADPH omitted, read-out: NADPH-free t1/2
[25] = with NADPH, read-out: NADPH-dependent t1/2
[26] = aqueous buffer, kinetic from dmso stock, phosphate buffered saline (PBS), highest concentration with no precipitate (OD540), read-out: Solubility limit
[27] = Table 7, initial screening, MRSA (2658 RCMB), read-out: minimum inhibitory concentration (MIC)
[28] = Staphylococcus aureus, Table 8, S. aureus NRS107

Compound: CCCCc1ccc(-c2nc(C)c(-c3ccnc(N)n3)s2)cc1 [Compound 8, 4-[2-(4-Butylphenyl)-4-methylthiazol-5-yl]pyrimidin-2-amine]
melting point: 159 °C
Mean A→B Papp [1]: 149 nm/s
Mean B→A Papp ([1]; Caco-2, basolateral to apical): 170 nm/s
Efflux ratio ([1]; Papp (B→A)/Papp (A→B)): 1.1
less soluble than the lead compound 1 ([2]; 2 h): 32%
solubility at 2 h [2, 21]: 42 µM (≈ 13.6 µg/mL)
MIC [3, 22]: 3.12 ± 0.1 mg/L (≈ 9.62 µM)
MIC ± SD ([3]; Table 1, MRSA (2658 RCMB)): 3.12 ± 0.10 mg/L (≈ 9.62 µM)
microsomal CLint [4, 23]: 0.5 µL/min/mg
half-life [4, 24]: > 1 h
microsomal CLint ([4]; with NADPH, read-out: NADPH-dependent CLint): 3 to 7.5 µL/min/mg
half-life [4, 25]: 3.25 h

Compound: CCCCc1ccc(-c2nc(C)c(-c3ccnc(NC(=N)N(C)C)n3)s2)cc1 [Compound 11, 3-{4-[2-(4-Butylphenyl)-4-methylthiazol-5-yl]pyrimidin-2-yl}-1,1-dimethylguanidine]
melting point: 153.7 °C
solubility at 2 h [2, 21]: 53 µM (≈ 20.9 µg/mL)
MIC [3, 22]: 0.78 mg/L (≈ 1.98 µM)
antibacterial (anti-MRSA) activity, in words ([3]; Table 1): more potent than vancomycin; also recorded: MIC value below one microgram/mL
microsomal CLint [4, 23]: 0.5 µL/min/mg
half-life [4, 24]: > 1 h
half-life [4, 25]: 4.05 h

Compound: Cc1nc(-c2ccc(-c3ccoc3)cc2)sc1-c1ccnc(N)n1 [Compound 24, 4-{2-[4-(Furan-3-yl)phenyl]-4-methylthiazol-5-yl}pyrimidin-2-amine]
melting point: 161.2 °C
solubility at 2 h [2, 26]: 13 µM (≈ 4.35 µg/mL)
MIC ([3]; MRSA, read-out: MIC ± SD): 7.8 ± 0.5 mg/L (≈ 23.3 µM)

Compound: Cc1nc(-c2ccc(-c3ccco3)cc2)sc1-c1ccnc(N)n1 [Compound 25, 4-{2-[4-(Furan-2-yl)phenyl]-4-methylthiazol-5-yl}pyrimidin-2-amine]
melting point: 209.3 °C
solubility at 2 h [2, 26]: 14 µM (≈ 4.68 µg/mL)
MIC ([3]; MRSA, read-out: MIC ± SD): 8.7 ± 0.3 mg/L (≈ 26 µM)

Compound: CNC(=C[N+](=O)[O-])NCCSCc1ccc(CN(C)C)o1 [Ranitidine, ranitidine, reference compound]
Mean A→B Papp [1]: 2 nm/s

Compound: COC(=O)[C@H]1[C@H]2C[C@@H]3c4[nH]c5cc(OC)ccc5c4CCN3C[C@H]2C[C@@H](OC(=O)c2cc(OC)c(OC)c(OC)c2)[C@@H]1OC [Reserpine, reserpine, reference compound]
solubility at 2 h ([2]; phosphate buffered saline (PBS), highest concentration with no precipitate (OD540), read-out: Solubility limit): 31.3 µM (≈ 19.1 µg/mL)

Continued, in another order:

melting point: 225 °C (dec.)
solubility at 2 h [2, 21]: 8.5 µM (≈ 2.98 µg/mL)
MIC [3, 22]: 6.25 mg/L (≈ 17.8 µM)
Compound: Cc1nc(-c2ccc(-c3ccsc3)cc2)sc1-c1ccnc(N)n1 [Compound 26, 4-{4-Methyl-2-[4-(thiophen-3-yl)phenyl]thiazol-5-yl}pyrimidin-2-amine]

melting point: 160.6 °C
solubility at 2 h [2, 21]: 35 µM (≈ 11.7 µg/mL)
MIC [3, 22]: 3.12 mg/L (≈ 9.33 µM)
Compound: Cc1nc(-c2ccc(C3=CCCC3)cc2)sc1-c1ccnc(N)n1 [Compound 27, 4-{2-[4-(Cyclopent-1-en-1-yl)phenyl]-4-methylthiazol-5-yl}pyrimidin-2-amine]

melting point: 140.4 °C
solubility at 2 h [2, 21]: 37 µM (≈ 12.9 µg/mL)
MIC [3, 22]: 0.78 mg/L (≈ 2.24 µM)
Compound: Cc1nc(-c2ccc(C3=CCCCC3)cc2)sc1-c1ccnc(N)n1 [Compound 29, 4-{2-[4-(Cyclohex-1-en-1-yl)phenyl]-4-methylthiazol-5-yl}pyrimidin-2-amine]

MIC [5]: 4 mg/L (≈ 9.16 µM)
MIC [6]: 4 mg/L (≈ 9.16 µM)
MIC [7]: 4 mg/L (≈ 9.16 µM)
MIC [9]: 4 mg/L (≈ 9.16 µM)
MIC [10]: 4 mg/L (≈ 9.16 µM)
MIC [11]: 4 mg/L (≈ 9.16 µM)
MIC [3, 27]: 1.17 mg/L (≈ 2.68 µM)
Compound: Cc1nc(-c2ccc(C(C)(C)C)cc2)sc1-c1ccnc(NC(=N)N2CCOCC2)n1 [Compound 61, N-(4-(2-(4-(tert-Butyl)phenyl)-4-methylthiazol-5-yl)pyrimidin-2-yl) morpholine-4-carboximidamide]
bactericidal / bacteriostatic behaviour in time-kill assay, in words [8]: rapid bactericidal activity
time to completely eradicate the MRSA inoculum [8]: within two to four hours
MBC [9]: 4 mg/L (≈ 9.16 µM)

MIC [12]: 2 mg/L (≈ 4.67 µM)
MIC [13]: 2 mg/L (≈ 4.67 µM)
MIC [14]: 4 mg/L (≈ 9.33 µM)
MIC [5]: 4 mg/L (≈ 9.33 µM)
MIC [6]: 2 mg/L (≈ 4.67 µM)
MIC [7]: 4 mg/L (≈ 9.33 µM)
MIC [15]: 4 mg/L (≈ 9.33 µM)
MIC [9]: 64 mg/L (≈ 149 µM)
MIC [10]: 64 mg/L (≈ 149 µM)
MIC ([16]; ATCC19111, Table 9, Listeria monocytogenes ATCC 19111): 2 mg/L (≈ 4.67 µM)
MBC values relative to MIC values against L. monocytogenes ([16]; text b122): more than three-fold higher
MIC [17]: 8 mg/L (≈ 18.7 µM)
MIC [11]: 4 mg/L (≈ 9.33 µM)
MIC ([18]; read-out: MIC): 2 mg/L (≈ 4.67 µM)
MIC ([19]; read-out: MIC): 4 mg/L (≈ 9.33 µM)
MIC [20, 28]: 64 mg/L (≈ 149 µM)
MIC [3, 27]: 0.78 mg/L (≈ 1.82 µM)
Compound: Cc1nc(-c2ccc(C(C)(C)C)cc2)sc1-c1ccnc(NC(=N)c2ccccn2)n1 [Compound 64, N-(4-(2-(4-(tert-Butyl)phenyl)-4-methylthiazol-5-yl)pyrimidin-2-yl) picolinimidamide]
MBC [12]: 2 mg/L (≈ 4.67 µM)
MBC [13]: 2 mg/L (≈ 4.67 µM)
MBC [14]: 4 mg/L (≈ 9.33 µM)
MBC [5]: 4 mg/L (≈ 9.33 µM)
MBC [6]: 4 mg/L (≈ 9.33 µM)
MBC [7]: 4 mg/L (≈ 9.33 µM)
time to three-log10 reduction in the initial inoculum of MRSA [8]: within six hours
bactericidal / bacteriostatic behaviour in time-kill assay, in words [8]: rapid bactericidal activity
time to completely eradicate the MRSA inoculum [8]: ≤ 24 h
MBC [15]: 4 mg/L (≈ 9.33 µM)
MBC [9]: > 64 mg/L
MBC ([10]; read-out: MBC): > 64 mg/L
MBC [17]: 8 mg/L (≈ 18.7 µM)
MBC ([18]; read-out: MBC): 4 mg/L (≈ 9.33 µM)
MBC ([19]; read-out: MBC): 4 mg/L (≈ 9.33 µM)
MBC [20, 28]: > 64 mg/L
activity against S. aureus NRS107, in words ([20]; text b117): inactive
